Laboratory results taken from PMC5476196, “Uptake, biotransformation and elimination of selected pharmaceuticals in a freshwater invertebrate measured using liquid chromatography tandem mass spectrometry” (Chemosphere, 2017).
Entries after “also recorded” stand apart in the source; their conditions may differ.

Key:
[1] = Procedure: (§1) Individual adult organisms (n = 25), both male and female (>5 mg wet weight) were placed in Pyrex glass beakers. G. pulex were carefully transferred to beakers using blunt forceps to avoid any harm to the organisms before exposure. Each beaker contained 25 organisms in 200 mL of exposure media (AFW and test compound). […] All exposure media contained <0.001% of organic solvent (methanol). A total of 300 organisms were used per compound exposure and were sampled for n = 3 per time-point. […] These were subsequently analysed for background contamination. […] Each animal specimen was rinsed with ultra-pure water and then frozen at −20 °C.
(§2) Water samples collected from exposure experiments were filtered using Whatman filters (0.2 μM) and directly injected onto the LC-MS/MS for analysis. For G. pulex, A mass of 50 mg of lyophilised and ground material was extracted by glass bead pulverisation in 5 mL of acetonitrile and diluted with 100 mL of ammonium acetate buffer (10 mM) for loading onto Waters HLB solid phase extraction (SPE) cartridges (6 cc, 200 mg sorbent).

sturgeons = system: sturgeons; design: method as in Hou et al., 2003; settings: ref Hou et al., 2003; cited from earlier work
Gammarus pulex = assay: in vivo; settings: exposure 1 μg L^−1
Procedure: as §1, §2
Briefly, separations were performed on an Agilent HP1100 LC system configured with a Waters SunFire reversed-phase C18 column (150 mm × 2.1 mm, 2.5 μM particle size). […] Detection was performed using a Waters Quattro triple quadrupole mass spectrometer with electrospray ionisation operated in positive and negative polarity switching mode. Quantification of analytes was performed using 3-point internal standard matrix-matched calibration using the peak area ratio of non-labelled analyte (precursor range: 50–300 ng g^−1, biotransformation product range: 50–150 ng g^−1) to the stable isotope labelled internal standard (SIL-IS) (100 ng g^−1).
Herein, the authors define BCFtotal as the summation of the BCF of both parent/precursor and biotransformation products (i.e. the total body burden). Whereas, BCFparent will be used to describe the BCF determined for the parent compound alone.

Cc1cc(C)nc(NS(=O)(=O)c2ccc(N)cc2)n1 [Sulfamethazine, sulfamethazine]
stability of aqueous pharmaceutical concentration ([1]; across the exposure period): remained stable | Concentration, 24 h ([1]; exposure media after 24 h of exposure with Day 1 solution, n = 3): 0.99 ng/mL | Concentration, 48 h ([1]; exposure media after 24 h of exposure with Day 2 solution, n = 3 (propranolol n = 2)): 0.71 ng/mL | Concentration, Day 2 (initial pharmaceutical concentration on day 2) ([1]; exposure media, n = 2): 0.89 ng/mL | Concentration, Day 1 (initial pharmaceutical concentration on day 1) ([1]; exposure media, n = 3, nominal 1 μg L^−1 (propranolol 10 μg L^−1)): 1.06 ng/mL | BCF in sturgeons (sturgeons): 1 L/kg | detection of parent compound in G. pulex samples (Gammarus pulex): not detected in any sample; also recorded: no peaks were detected
